Source: ChEMBL document CHEMBL6087436, “The novel β-hairpin antimicrobial peptide D-G(RF)3 demonstrates exceptional antibacterial efficacy” (Eur J Med Chem, 2025)
Calls of active or inactive are those of the source. No cut-off for these calls is given here.

How the values were obtained:
[1] = tested on: Pseudomonas aeruginosa; assay: Antibacterial activity against Pseudomonas aeruginosa ATCC 27853 in presence of 150 mM NaCl; type: functional, organism-based
[2] = Retention time of the compound by RP-HPLC analysis; type: physicochemical
[3] = tested on: Cell membrane; assay: Induction of cell membrane permeability in Escherichia coli assessed as grooves shallower at 2 times MIC by SEM analysis; type: subcellular
[4] = Acute toxicity in male balb/c mouse assessed as renal necrosis at 81.28 mg/kg, ip by H and E staining based analysis; type: organism-based; details: in vivo
[5] = tested on: Klebsiella pneumoniae; assay: Bactericidal activity against Klebsiella pneumoniae ATCC 700603 assessed as bacterial eradication by measuring bacterial counts at 2 times MIC measured after 30 mins by Time killing assay relative to control; type: functional; details: 0.5 h
[6] = tested on: Staphylococcus aureus; assay: Additive antibacterial activity against Staphylococcus aureus assessed as fractional inhibitory concentration index in presence of polymyxin B incubated for 18 hrs by checkerboard method; type: functional
[7] = tested on: Pseudomonas aeruginosa; assay: Antibacterial activity against Pseudomonas aeruginosa ATCC 27853 in presence of 6 uM NH4Cl; type: functional, organism-based
[8] = tested on: Pseudomonas aeruginosa; assay: Synergistic antibacterial activity against Pseudomonas aeruginosa assessed as fractional inhibitory concentration index in presence of rifampin incubated for 18 hrs by checkerboard method; type: functional
[9] = tested on: Escherichia coli; assay: Antimicrobial activity against Escherichia coli at 2 times MIC in presence of LPS at 64 uM preincubated for 1 hr followed by bacterial addition and measured after 6 hrs by LPS competitive inhibition assay; type: functional, organism-based; details: time 7.0 hrs
[10] = tested on: Cell membrane; assay: Induction of cell membrane permeability in Staphylococcus aureus assessed as rupture of bacteria with leaked contents at 2 times MIC measured after 30 mins by SEM analysis; type: subcellular
[11] = tested on: Staphylococcus aureus; assay: Additive antibacterial activity against Staphylococcus aureus assessed as fractional inhibitory concentration index in presence of ciprofloxacin incubated for 18 hrs by checkerboard method; type: functional
[12] = Acute toxicity in male balb/c mouse assessed as mortality at 63.2 to 100 mg/kg, ip measured after 7 days by karber method; type: organism-based; details: in vivo, 168 h, dose 63.2-100 mg/kg, time 7 day
[13] = tested on: Cell membrane; assay: Induction of Inner membrane permeabilization in Escherichia coli ML-35 ATCC […] at 2 times MIC measured every 5 mins for 120 mins by ONPG dye based assay; type: subcellular
[14] = tested on: Cell membrane; assay: Induction of cell membrane permeability in Staphylococcus aureus assessed as agglutination with leaked contents at 2 times MIC measured after 2 hrs by SEM analysis; type: subcellular
[15] = Acute toxicity in male balb/c mouse assessed as hepatocyte necrosis at 81.28 mg/kg, ip by H and E staining based analysis; type: organism-based; details: in vivo
[16] = tested on: Klebsiella pneumoniae; assay: Inhibition of biofilm formation in Klebsiella pneumoniae ATCC 700603 at 1 uM incubated for 24 hrs by crystal violet staining based analysis; type: functional, organism-based
[17] = tested on: Escherichia coli; assay: Inhibition of biofilm formation in Escherichia coli ATCC 25922 incubated for 24 hrs by crystal violet staining based analysis; type: functional, organism-based; details: dose 1-32 µM
[18] = tested on: Escherichia coli; assay: Additive antibacterial activity against Escherichia coli assessed as fractional inhibitory concentration index in presence of kanamycin incubated for 18 hrs by checkerboard method; type: functional
[19] = tested on: Cell membrane; assay: Induction of cell membrane permeability in Staphylococcus aureus assessed as bacterial aggregation into breakage at 2 times MIC measured after 2 hrs by SEM analysis; type: subcellular
[20] = tested on: Escherichia coli; assay: Inhibition of biofilm formation in Escherichia coli ATCC 25922 at 1 uM incubated for 24 hrs by crystal violet staining based analysis; type: functional, organism-based
[21] = tested on: Cell membrane; assay: Induction of cell membrane permeability in Staphylococcus aureus assessed as bacterial aggregation into clusters at 2 times MIC measured after 2 hrs by SEM analysis; type: subcellular
[22] = tested on: Cell membrane; assay: Induction of Inner membrane permeabilization in Escherichia coli ML-35 ATCC […] at 4 times MIC measured every 5 mins for 120 mins by ONPG dye based assay; type: subcellular
[23] = tested on: Klebsiella pneumoniae; assay: Bactericidal activity against Klebsiella pneumoniae ATCC 700603 assessed as bacterial eradication by measuring bacterial counts at 1 times MIC measured after 30 mins by Time killing assay relative to control; type: functional; details: 0.5 h
[24] = tested on: Staphylococcus aureus; assay: Synergistic antibacterial activity against Staphylococcus aureus assessed as fractional inhibitory concentration index in presence of ciprofloxacin incubated for 18 hrs by checkerboard method; type: functional
[25] = tested on: Klebsiella pneumoniae; assay: Bactericidal activity against Klebsiella pneumoniae ATCC 700603 assessed as bacterial eradication by measuring bacterial counts at 2 times MIC measured after 15 mins by Time killing assay relative to control; type: functional; details: 0.25 h
[26] = tested on: Cell membrane; assay: Induction of cell membrane permeability in Staphylococcus aureus assessed as bacterial aggregation into breakage at 2 times MIC measured after 30 mins by SEM analysis; type: subcellular
[27] = tested on: Cell membrane; assay: Induction of cell membrane permeability in Staphylococcus aureus assessed as bacterial dissolution at 2 times MIC measured after 2 hrs by SEM analysis; type: subcellular
[28] = tested on: Cell membrane; assay: Induction of cell membrane permeability in Staphylococcus aureus assessed as bacterial adhesion at 2 times MIC by SEM analysis; type: subcellular
[29] = tested on: Cell membrane; assay: Induction of cell membrane permeability in Staphylococcus aureus assessed as bacterial aggregation at 2 times MIC measured after 30 mins by SEM analysis; type: subcellular
[30] = tested on: Cell membrane; assay: Induction of cell membrane permeability in Staphylococcus aureus assessed as bacterial aggregation into clusters at 2 times MIC measured after 30 mins by SEM analysis; type: subcellular
[31] = Acute toxicity in male balb/c mouse assessed as renal intracellular bleeding at 45.33 mg/kg, ip by H and E staining based analysis; type: organism-based; details: in vivo
[32] = tested on: Escherichia coli; assay: Synergistic antibacterial activity against Escherichia coli assessed as fractional inhibitory concentration index in presence of kanamycin incubated for 18 hrs by checkerboard method; type: functional
[33] = tested on: Cell membrane; assay: Induction of cell membrane permeability in Staphylococcus aureus assessed as bacterial dissolution at 2 times MIC measured after 30 mins by SEM analysis; type: subcellular
[34] = tested on: Cell membrane; assay: Induction of Cytoplasmic membrane depolarization in Escherichia coli at 1 to 4 times MIC measured for every 10 mins by DiSC3(5) dye based fluorescence method; type: subcellular
[35] = tested on: Escherichia coli; assay: Antimicrobial activity against Escherichia coli at 2 times MIC in presence of LPS preincubated for 1 hr followed by bacterial addition and measured after 6 hrs by LPS competitive inhibition assay; type: functional, organism-based
[36] = tested on: Cell membrane; assay: Induction of Outer membrane permeabilization in Escherichia coli at 1 times MIC by NPN-dye based fluorescence analysis; type: subcellular
[37] = tested on: Cell membrane; assay: Induction of cell membrane permeability in Staphylococcus aureus assessed as bacterial collapse at 2 times MIC by SEM analysis; type: subcellular
[38] = tested on: Cell membrane; assay: Induction of Cytoplasmic membrane depolarization in Staphylococcus aureus at 4 times MIC measured for every 10 mins by DiSC3(5) dye based fluorescence method; type: subcellular
[39] = Acute toxicity in male balb/c mouse assessed as hepatocyte necrosis at 45.33 mg/kg, ip by H and E staining based analysis; type: organism-based; details: in vivo
[40] = tested on: Pseudomonas aeruginosa; assay: Synergistic antibacterial activity against Pseudomonas aeruginosa assessed as fractional inhibitory concentration index in presence of polymyxin B incubated for 18 hrs by checkerboard method; type: functional
[41] = tested on: Staphylococcus aureus; assay: Synergistic antibacterial activity against Staphylococcus aureus assessed as fractional inhibitory concentration index in presence of polymyxin B incubated for 18 hrs by checkerboard method; type: functional
[42] = Acute toxicity in male balb/c mouse assessed as mortality at 25 to 50 mg/kg, ip measured after 50 mins by karber method; type: organism-based; details: in vivo, dose 25-50 mg/kg

N=C(N)NCCC[C@H](NC(=O)CNC(=O)[C@H]1CCCN1C(=O)[C@H](CCCNC(=N)N)NC(=O)[C@H](Cc1ccccc1)NC(=O)[C@H](CCCNC(=N)N)NC(=O)[C@H](Cc1ccccc1)NC(=O)[C@H](CCCNC(=N)N)NC(=O)[C@@H](N)Cc1ccccc1)C(=O)N[C@@H](Cc1ccccc1)C(=O)N[C@@H](CCCNC(=N)N)C(=O)N[C@@H](Cc1ccccc1)C(=O)N[C@@H](CCCNC(=N)N)C(=O)N[C@@H](Cc1ccccc1)C(N)=O
Activity [1]: Active
Retention_time [2]: 14.433 min
Activity [3]: Active
Activity [4]: Toxic
Activity [5]: 100%
fractional inhibitory concentration index (FICI) [6]: 0.625
Activity [7]: Active
fractional inhibitory concentration index (FICI) [8]: 0.313
Activity [9]: inactive
Activity [10]: Active
fractional inhibitory concentration index (FICI) [11]: 0.563
Activity [12]: Toxic
Activity [13]: Active
Activity [14]: Active
Activity [15]: Toxic
inhibition [16]: Active; Less Effective Than Polymyxin B
inhibition [17]: Dose-dependent-effect
fractional inhibitory concentration index (FICI) [18]: 0.563

N=C(N)NCCC[C@@H](NC(=O)CNC(=O)[C@H]1CCCN1C(=O)[C@@H](CCCNC(=N)N)NC(=O)[C@@H](Cc1ccccc1)NC(=O)[C@@H](CCCNC(=N)N)NC(=O)[C@@H](Cc1ccccc1)NC(=O)[C@@H](CCCNC(=N)N)NC(=O)[C@H](N)Cc1ccccc1)C(=O)N[C@H](Cc1ccccc1)C(=O)N[C@H](CCCNC(=N)N)C(=O)N[C@H](Cc1ccccc1)C(=O)N[C@H](CCCNC(=N)N)C(=O)N[C@H](Cc1ccccc1)C(N)=O
Activity [19]: Active
Activity [1]: Active
Retention_time [2]: 14.438 min
inhibition [20]: Active
Activity [21]: Active
Activity [3]: Active
Activity [22]: Active
Activity [23]: 100%
fractional inhibitory concentration index (FICI) [24]: 0.313
Activity [25]: 100%
Activity [26]: Active
Activity [27]: Active
Activity [28]: Active
Activity [29]: Active
Activity [30]: Active
Activity [31]: Toxic
fractional inhibitory concentration index (FICI) [32]: 0.313
Activity [33]: Active
Activity [7]: Active
fractional inhibitory concentration index (FICI) [8]: 0.313
Activity [34]: Active
Activity [35]: inactive
Activity [36]: Active; Comparable Permeability To Polymyxin B Was Observed
Activity [37]: Active
Activity [38]: Active; Comparable Depolarization To Valinomycin Was Observed
Activity [39]: Toxic
fractional inhibitory concentration index (FICI) [40]: 0.313
fractional inhibitory concentration index (FICI) [41]: 0.375
inhibition [16]: Active; Less Effective Than Polymyxin B
inhibition [17]: Dose-dependent-effect
Activity [42]: Toxic
